“And” between values parts separate entries of the source, which are not always exact repeats. Equal entries are not always repeated. “Also recorded” adds a separate entry of the source.

One experiment relates to w794 duplex DNA. Kind of experiment: DNA alkylation selectivity and efficiency within w794 DNA, thermally-induced strand cleavage and PAGE. The class given is biochemical, SV40. The settings on record: for DNA alkylation, failure to alkylate: 105-107: 37° C., 72 h, up to 10^-2 M, 108 and 110: 10^-3 M or lower. The text has this: DNA Alkylation Selectivity and Efficiency. The DNA alkylation properties of the agents were examined within w794 duplex DNA, a 144 base-pair segment of duplex DNA for which comparative results are available for related agents. The alkylation site identification and the assessment of the relative selectivity among the available sites were obtained by thermally-induced strand cleavage of the singly 5' end-labeled duplex DNA after exposure to the agents. Following treatment of the end-labeled duplex DNA with a range of agent concentrations, the unbound agent was removed by EtOH precipitation of the DNA. Redissolution of the DNA in aqueous buffer, thermolysis (100° C., 30 min) to induce strand cleavage at the sites of DNA alkylation, denaturing high resolution polyacrylamide gel electrophoresis (PAGE) adjacent to Sanger dideoxynucleotide sequencing standards, and autoradiography led to identification of the DNA cleavage and alkylation sites. The DNA alkylation reaction selectivities observed under the incubation conditions for the agents detailed herein have proven identical to the alkylation selectivities observed with shorter or extended reaction periods or when the reactions were conducted at different temperatures (37 or 4° C., 0.5-7 d). As discussed below, the rates and efficiencies but not final relative efficiencies of DNA alkylation were altered by changing the reaction temperatures.
DNA Alkylation Properties. […] The DNA alkylation reaction was examined within w794 DNA for which comparative results are available for past agents. The alkylation site identification was obtained by thermal strand cleavage of the singly 5' end-labeled duplex DNA after exposure to the agents. Following treatment of the labeled DNA with a range of agent concentrations, the unbound agent was removed by EtOH precipitation of the DNA. Redissolution of the DNA in aqueous buffer, thermolysis at 100° C. (30 min) to induce depurination and strand cleavage at the adenine N3 or guanine N3 minor groove alkylation sites, denaturing high resolution PAGE adjacent to Sanger sequencing standards and autoradiography provided the DNA cleavage and alkylation sites.
DNA Alkylation Studies: selectivity and Efficiency. General procedures, the preparation of singly ^32 P 5' end-labeled double stranded DNA, the agent binding studies, gel electrophoresis, and autoradiography were conducted according to standard procedures. Eppendorf tubes containing the 5' end-labeled DNA (9 μL) in TE buffer (10 mM Tris, 1 mM EDTA, pH 7.5) were treated with the agent in DMSO (1 μL at the specified concentration). The solution was mixed by vortexing and brief centrifugation and subsequently incubated at 4 or 25° C. for 24 h (natural enantiomers) and 25 or 37° C. (unnatural enantiomers) for 72 h. The covalently modified DNA was separated from unbound agent by EtOH precipitation and resuspended in TE buffer (10 μL). The solution of DNA in an Eppendorf tube sealed with parafilm was warmed at 100° C. for 30 min to induce cleavage at the alkylation sites, allowed to cool to 25° C. and centrifuged. Formamide dye (0.03% xylene cyanol FF, 0.03% bromophenol blue, 8.7% Na2 EDTA 250 mM) was added (5 μL) to the supernatant. Prior to electrophoresis, the sample was denatured by warming at 100° C. for 5 min, placed in an icebath, and centrifuged, and the supernatant (3 μL) was loaded directly onto the gel. Sanger dideoxynucleotide sequencing reactions were run as standards adjacent to the reaction samples. Polyacrylamide gel electrophoresis (PAGE) was run on an 8% sequencing gel under denaturing conditions (8 M urea) in TBE buffer (100 mM Tris, 100 mM boric acid, 0.2 mM Na2 EDTA) followed by autoradiography.
DNA Alkylation of w794 DNA. Eppendorf tubes containing the 5'-end labeled DNA (9 μL) in TE buffer (10 mM Tris, 1 mM EDTA, pH 7.2) were treated with the agent in DMSO (1 μL at the specified concentration). […]

In the next experiment the test system is calf thymus DNA. Briefly: DNA alkylation of calf thymus DNA, recovery of unreacted agent. The class given is biochemical. To be noted: 37° C., 48-72 h, 1:51 agent:base-pair ratio. The method, then: DNA Alkylation of Calf Thymus DNA. An aliquot of agent (5 μL, 0.01 M in DMSO) was added to a calf thymus DNA solution (0.45 mL, 3.79 mg/mL, 10 mM sodium phosphate, pH 7.0, base-pair:agent=51:1). The DNA-agent mixtures were incubated at 37° C. for 72 h for both enantiomers of 105, 106 and 107 or at 37° C. for 48 h for 108, 109, 110 and 111. For both enantiomers of 105, 106, 108 and 110, the unreacted materials were extracted with EtOAc (0.5 mL×4). The combined extracts were dried and dissolved in EtOAc (0.9 mL) and the quantities of 105, 106, 108, and 110 were determined by UV. Additional extraction with EtOAc (0.5 mL×4) was carried out, and the amounts of combined material were determined by UV. No additional material was recovered. For the ionic agents 107, 109 and 111, the unreacted materials were recovered from the supernatants of EtOH precipitation of the DNA. The EtOH in the supernatant was removed by a stream of N2. The supernatants were diluted to 0.9 mL with H2 O and the recovered quantities of 107, 109, and 111 were determined by UV.
These studies were conducted alongside control reactions conducted in the absence of DNA. An aliquot of agent (5 μL, 0.01 M in DMSO) was added to sodium phosphate buffer (0.45 mL, 10 mM, pH 7.0). The agent-buffer mixtures were incubated at 37° C. for 72 h for both enantiomers of 105, 106 and 107 or at 37° C. for 48 h for 108, 109, 110 and 111. For 105, 106, 108 and 110, the materials were extracted with EtOAc (0.5 mL×4). The combined extracts were dried and dissolved in EtOAc (0.9 mL) and the agent quantities were determined by UV. For the ionic agents 107, 109 and 111, the agent-buffer mixtures were diluted to 0.9 mL with H2 O and their quantities were determined by UV.

Experiment [1] deals with w794 DNA, 5'-AATTA high affinity site. Briefly: Relative rate of DNA alkylation at the w794 5'-AATTA high affinity site. To be noted: 25° C. The class given is biochemical, SV40. The method, then: Rate of DNA Alkylation. The relative rates of DNA alkylation for the natural enantiommers of CCBI-TMI (35) and CCBI-indole2 (37) versus those of the corresponding CBI and MCBI agents were measured at the single high affinity site in w794, 5'-AATTA. The relative rates earlier studies of DNA alkylation for MCBI-TMI, CBI-TMI, and duocarmycin SA were determined to be quite similar at 4° C., 1.8:1.0:0.9, respectively. […] In prior studies, we have highlighted similar observations with agents that span a much larger range of relative reactivities.
The DNA alkylation selectivity and efficiency of the natural enantiomers of 304-307 were compared with that of 1 in w794 DNA. […] These trends in the overall efficiency of DNA alkylation parallel the relative trends in cytotoxic potency.
(§1) DNA Alkylation Relative Rate of (+)-CCBI-TMI (35), (+)-CBI-TMI, and (+)-MCBI-TMI. Following the procedure detailed above, Eppendorf tubes containing 5' end-labeled w794 DNA (9 μL) in TE buffer (pH 7.5) were treated with (+)-CCBI-TMI (35), (+)-CBI-TMI, or (+)-MCBI-TMI (1 μL, 10^-6 M in DMSO). The solutions were mixed and incubated at 25° C. for 2, 4, 6, 9, 12, 15, and 24 h, respectively. Subsequent isolation of the alkylated DNA by EtOH precipitation, resuspension in TE buffer (10 μL, pH 7.5), thermolysis (30 min, 100° C.), PAGE, and autoradiography were conducted as detailed above. Relative rates for alkylation at the w794 high-affinity 5'-AATTA site were derived from the slopes of the plots of percent integrated optical density (IOD) of the high-affinity alkylation cleavage bands versus time.
as §1, with “(+)-CCBI-indole2 (37), (+)-CBI-indole2,” for “(+)-CCBI-TMI (35), (+)-CBI-TMI,”, “(+)-MCBI-indole2.” for “(+)-MCBI-TMI.”, “(+)-CCBI-indole2 (37), (+)-CBI-indole2, and (+)-MCBI-indole2” for “(+)-CCBI-TMI (35), (+)-CBI-TMI, or (+)-MCBI-TMI”

Regarding `CSCCCNC(=O)c1csc(-c2csc(CCNC(=O)CCC(=O)N3CC(CCl)c4c3cc(O)c3ccccc43)n2)n1` (stereo not drawn) [compound 108, 3-[2'-(2-(2-(1-Chloromethyl-5-hydroxy-1,2-dihydro-3H-benz[e]indol-3-yl)-1,4-dioxobutyl)aminoethyl)-2,4'-bithiazole-4-carboxamido]propyl Methyl Sulfide], the “DNA alkylation, failure to alkylate” value with w794 duplex DNA is listed as “failed to alkylate DNA at concentrations of 10^-3 M or lower; also recorded: no reaction is observed”. Further, the “DNA alkylation of calf thymus DNA” value in the experiment with calf thymus DNA is reported as “recovered nearly quantitatively”.
Turning to `C[C@@H](O)[C@H](NC(=O)CCC(=O)N1CC(CCl)c2c1cc(O)c1ccccc21)C(=O)NCCc1nc(-c2nc(C(=O)NCCC[S+](C)C)cs2)cs1` (stereo partly drawn) [compound 111, 3-[2'-(2-((4-(1-Chloromethyl-5-hydroxy-1,2-dihydro-3H-benz[e]indol-3-yl)-1,4-diooxobutyl)-L-threonyl)aminoethyl)-2,4'-bithiazole-4-carboxamido]propyl Dimethyl Sulfonium Iodide], in the experiment with w794 duplex DNA, the “DNA alkylation properties, comparison in words” value is “only slightly more effective than 116”; the “DNA alkylation sequence selectivity” value is 5'-AA, 5'-TA and identical to that of N-BOC-CBI (123) and 116. Moreover, in the experiment on calf thymus DNA, the “DNA alkylation of calf thymus DNA” value is “perceptible covalent attachment to the calf thymus DNA”.
For `COc1ccc2c(c1)C13CC1CN(C(=O)c1cc4cc(NC(=O)c5cc6ccccc6[nH]5)ccc4[nH]1)C3=CC2=O` (single isomer, unassigned) [MCBI-indole2], the “relative rate of DNA alkylation, indole2 series” value in experiment [1] is reported as 1.4 ×.
Take `CSCCCNC(=O)c1csc(-c2csc(CCNC(=O)[C@@H](NC(=O)CCC(=O)N3CC(CCl)c4c3cc(O)c3ccccc43)[C@@H](C)O)n2)n1` (stereo partly drawn) [compound 110, 3-[2'-(2-((4-(1-Chloromethyl-5-hydroxy-1,2-dihydro-3H-benz[e]indol-3-yl)-1,4-dioxobutyl)-L-threonyl)aminoethyl)-2,4'-bithiazole-4-carboxamido]propyl Methyl Sulfide]: the “DNA alkylation, failure to alkylate” value in the experiment on w794 duplex DNA is “failed to alkylate DNA at concentrations of 10^-3 M or lower”. For the same compound, the “DNA alkylation of calf thymus DNA” value in the experiment on calf thymus DNA was “recovered nearly quantitatively”.
Take `C[S+](C)CCCNC(=O)c1csc(-c2csc(CCNC(=O)CCC(=O)N3CC(CCl)c4c3cc(O)c3ccccc43)n2)n1.[I-]` (stereo not drawn) [compound 109, 3-[2'-(2-(4-(1-Chloromethyl-5-hydroxy-1,2-dihydro-3H-benz[e]indol-3-yl)-1,4-dioxobutyl)aminoethyl)-2,4'-bithiazole-4-carboxamido]propyl Dimethyl Sulfonium Iodide]: in the experiment with w794 duplex DNA, the “DNA alkylation properties, comparison in words” value is given as “only slightly more effective than 116”; the “DNA alkylation sequence selectivity” value was 5'-AA, 5'-TA and identical to that of N-BOC-CBI (123) and 116. For the same compound, the “DNA alkylation of calf thymus DNA” value with calf thymus DNA is listed as “perceptible covalent attachment to the calf thymus DNA”.
In the case of `C[S+]([O-])CCCNC(=O)c1csc(-c2csc(CCNC(=O)C(=O)N3CC(CCl)c4c3cc(O)c3ccccc43)n2)n1` (stereo not drawn) [compound 106, 3-[2'-(2-(2-(1-Chloromethyl-5-hydroxy-1,2-dihydro-3H-benz[e]indol-3-yl)-1,2-dioxoethyl)aminoethyl)-2,4'-bithiazole-4-carboxamido]propyl Methyl Sulfoxide], the “DNA alkylation of calf thymus DNA” value in the experiment with calf thymus DNA is “recovered nearly quantitatively”.
In the case of `COc1cc2cc(C(=O)N3CC4CC45C3=CC(=O)c3ccc(C#N)cc35)[nH]c2c(OC)c1OC` (stereo not drawn) [compound 35], in the experiment with w794 duplex DNA, the “DNA alkylation more efficient than MCBI or CBI based agents” value is 1.5-2 × and the “DNA alkylation sequence selectivity” value was “strong preference but not absolute requirement for the fourth 5' base to be A or T versus G or C”. Besides, the “relative rate of DNA alkylation, TMI series” value in experiment [1] (10^-6 M) amounted to 2.5 ×.
In the case of `N#Cc1ccc2c(c1)C13CC1CN(C(=O)c1cc4cc(NC(=O)c5cc6ccccc6[nH]5)ccc4[nH]1)C3=CC2=O` (single isomer, unassigned) [compound 37], in the experiment with w794 duplex DNA, the “DNA alkylation more efficient than MCBI or CBI based agents” value is 1.5-2 × and the “DNA alkylation sequence selectivity” value is listed as “stronger preference for the fourth base to be A or T but that preference extended to include a fifth 5' A or T base”. Moreover, the “relative rate of DNA alkylation, indole2 series” value in experiment [1] is 2.5 ×.

These data come from patent publication US6060608A, “Analogs of CC-1065 and the duocarmycins” (The Scripps Research Institute, priority 1999, dated 2000).
